The results in this text go back to patent publication US20260297109A1, “COMPOUNDS AS SUMO ACTIVATING ENZYME INHIBITORS” (WIGEN BIOMEDICINE TECHNOLOGY (SHANGHAI) CO., LTD., priority 2022, published 2026).

Structures are written as SMILES.

One experiment concerns the target T1, SAE (Homo sapiens, UniProt Q9UBT2).
T1 construct: endogenous in cells; host or cells: HCT116
T1 sequence (Q9UBT2 1-640): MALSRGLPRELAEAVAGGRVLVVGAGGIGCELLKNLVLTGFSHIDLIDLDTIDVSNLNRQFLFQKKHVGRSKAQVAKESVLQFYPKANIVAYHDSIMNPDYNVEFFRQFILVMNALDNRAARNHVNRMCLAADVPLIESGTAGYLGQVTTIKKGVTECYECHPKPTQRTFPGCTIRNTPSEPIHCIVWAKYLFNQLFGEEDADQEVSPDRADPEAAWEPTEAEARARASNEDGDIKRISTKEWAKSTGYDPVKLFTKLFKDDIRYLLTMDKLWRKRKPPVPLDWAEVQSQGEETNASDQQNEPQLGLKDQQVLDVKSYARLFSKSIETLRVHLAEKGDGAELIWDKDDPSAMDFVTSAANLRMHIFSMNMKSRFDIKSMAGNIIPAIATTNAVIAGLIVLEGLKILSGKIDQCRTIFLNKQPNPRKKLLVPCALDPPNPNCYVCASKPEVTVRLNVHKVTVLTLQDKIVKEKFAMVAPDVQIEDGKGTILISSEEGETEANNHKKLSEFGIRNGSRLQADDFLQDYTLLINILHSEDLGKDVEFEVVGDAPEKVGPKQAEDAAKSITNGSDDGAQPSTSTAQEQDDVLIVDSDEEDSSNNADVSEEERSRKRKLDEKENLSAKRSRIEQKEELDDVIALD
T1 sequence (Q9UBE0 1-346): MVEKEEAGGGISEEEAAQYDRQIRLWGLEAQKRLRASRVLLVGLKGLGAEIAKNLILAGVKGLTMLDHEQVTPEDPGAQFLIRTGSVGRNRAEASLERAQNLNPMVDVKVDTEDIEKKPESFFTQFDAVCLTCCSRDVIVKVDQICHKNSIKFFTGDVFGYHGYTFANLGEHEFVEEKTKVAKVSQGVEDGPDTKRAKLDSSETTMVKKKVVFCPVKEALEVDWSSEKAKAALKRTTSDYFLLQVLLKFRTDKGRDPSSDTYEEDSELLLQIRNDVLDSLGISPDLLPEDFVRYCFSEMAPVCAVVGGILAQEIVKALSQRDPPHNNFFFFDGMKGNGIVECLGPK
Description: SUMO IF: in vitro inhibitory activity assay against SAE in HCT116 cells (SUMO-2/3 immunofluorescence). Format: cell-based. The conditions noted are these: class symbols, 6 h at 37° C. In outline: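 HCT116 cells were treated with compound for 6 h at 37 °C, then PFA-fixed, Triton-permeabilised and BSA-blocked. They were stained overnight at 4 °C with anti-SUMO-2/3 (18H8) rabbit mAb (1:400), then with FITC anti-rabbit IgG (1:300). Fluorescence versus DMSO gave inhibition rate and IC50.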
As usually defined, the IC50 is the concentration that gives 50% inhibition. Higher therefore signals a need for much substance. `NS(=O)(=O)OC[C@H]1[C@H](F)[C@@H](Nc2ncncc2C(=O)c2cc3c(s2)COC[C@@]32NCCc3ccc(Cl)c(F)c32)C[C@@H]1O` [Compound 568] registered an IC50 above 200 nM.

In the case of `NS(=O)(=O)OC[C@H]1[C@H](F)[C@@H](Nc2ncncc2C(=O)c2cc3c(s2)CC[C@]32OCCc3ccccc32)C[C@@H]1O` [Compound 746], the IC50 fell in the range of 50 to 200 nM.

Turning to `NS(=O)(=O)OC[C@H]1[C@H](F)[C@@H](Nc2ncncc2C(=O)c2cc3c(s2)CCCC32NCCc3ncc(Cl)cc32)C[C@@H]1O` (stereo partly drawn) [Compound 603], the IC50 lay within 50 to 200 nM.

With `[2H]C1([2H])Cc2ccc(Cl)cc2[C@@]2(C=Cc3sc(C(=O)c4cncnc4N[C@H]4C[C@H](O)[C@@H](COS(N)(=O)=O)[C@@H]4F)cc32)N1` [Compound 701], the half-inhibitory concentration (IC50) was at most 50 nM.

The compound `NS(=O)(=O)OC[C@H]1[C@H](F)[C@@H](Nc2ncncc2C(=O)c2cc3c(s2)OC[C@]32NCCc3ccc(Cl)cc32)C[C@@H]1O` [Compound 147] displayed an IC50 of 50 to 200 nM.

Compound `Cc1sc(C(=O)c2cncnc2N[C@H]2C[C@H](O)[C@@H](COS(N)(=O)=O)[C@@H]2F)cc1C1NCCc2ccccc21` (stereo partly drawn) [Compound 229] yielded an IC50 above 200 nM.

As for `Cc1sc(C(=O)c2cncnc2N[C@H]2C[C@H](O)[C@@H](COS(N)(=O)=O)[C@@H]2F)cc1C1NCCc2cc(Cl)c(F)cc21` (stereo partly drawn) [Compound 252], the IC50 was in the range of 50 to 200 nM.

`NS(=O)(=O)OC[C@H]1[C@H](F)[C@@H](Nc2ncncc2C(=O)c2cc3c(s2)CCC32OCCc3ccc(F)cc32)C[C@@H]1O` (stereo partly drawn) [Compound 747] yielded an IC50 of 50 to 200 nM.

On to `NS(=O)(=O)OC[C@H]1[C@H](F)[C@@H](Nc2ncncc2C(=O)c2cc3c(s2)CCC[C@@]32OCCc3ccccc32)C[C@@H]1O` [Compound 709], for which the IC50 is above 200 nM.

Regarding `NS(=O)(=O)OC[C@H]1[C@H](F)[C@@H](Nc2ncncc2C(=O)c2cc3c(s2)CCC[C@]32NCCc3cc(Cl)c(F)cc32)C[C@@H]1O` [Compound 677], the half-inhibitory concentration (IC50) was at most 50 nM.

The compound `NS(=O)(=O)OC[C@H]1[C@H](F)[C@@H](Nc2ncncc2C(=O)c2cc3c(s2)C(=O)C[C@]32NCCc3ccc(Cl)cc32)C[C@@H]1O` [Compound 632] came in with a 50% inhibitory concentration (IC50) of 50 to 200 nM.

`NS(=O)(=O)OC[C@H]1[C@H](F)[C@@H](Nc2ncncc2C(=O)c2cc3c(s2)CC[C@]32NCCc3ccncc32)C[C@@H]1O` [Compound 699] registered a half-inhibitory concentration (IC50) of 50 to 200 nM.

As for `CCc1sc(C(=O)c2cncnc2N[C@H]2C[C@H](O)[C@@H](COS(N)(=O)=O)[C@@H]2F)cc1C1NCCc2ccc(Cl)cc21` (stereo partly drawn) [Compound 260], the IC50 is 50 to 200 nM.

In the case of `NS(=O)(=O)OC[C@H]1[C@H](F)[C@@H](Nc2ncncc2C(=O)c2cc3c(s2)CSCC32NCCc3ccc(F)cc32)C[C@@H]1O` (stereo partly drawn) [Compound 297], the IC50 is at most 50 nM.

With `CC1(C)CN[C@@]2(CCCc3sc(C(=O)c4cncnc4N[C@H]4C[C@H](O)[C@@H](COS(N)(=O)=O)[C@@H]4F)cc32)c2cc(Cl)ccc21` [Compound 1027], the IC50 is above 200 nM.

In turn, `Cc1sc(C(=O)c2cncnc2N[C@H]2C[C@H](O)[C@@H](COS(N)(=O)=O)[C@@H]2F)cc1C1NCCc2cc(Cl)ncc21` (stereo partly drawn) [Compound 254] showed a half-inhibitory concentration (IC50) of 50 to 200 nM.

`NS(=O)(=O)OC[C@H]1[C@H](F)[C@@H](Nc2ncncc2C(=O)c2cc3c(s2)CCC[C@]32NCCc3cc(Cl)c(Cl)cc32)C[C@@H]1O` [Compound 672] came in with an IC50 of at most 50 nM.

Turning to `NS(=O)(=O)OC[C@H]1[C@H](F)[C@@H](Nc2ncncc2C(=O)c2cc3c(s2)C(F)=C[C@@]32NCCc3ccc(Cl)cc32)C[C@@H]1O` [Compound 322], the IC50 was above 200 nM.

For `NS(=O)(=O)OC[C@H]1[C@H](F)[C@@H](Nc2ncncc2C(=O)c2nc3c(s2)COC[C@]32NCCc3ccc(Cl)cc32)C[C@@H]1O` [Compound 590], the IC50 was above 200 nM.

`NS(=O)(=O)OC[C@H]1[C@H](F)[C@@H](Nc2ncncc2C(=O)c2cc3c(s2)CC[C@]32NCCc3ccc(C4CC4)cc32)C[C@@H]1O` [Compound 688] showed an IC50 of 50 to 200 nM.

In turn, `[2H]C1([2H])Cc2ccc(Cl)cc2C2(CCCc3sc(C(=O)c4cncnc4N[C@H]4C[C@H](O)[C@@H](COS(N)(=O)=O)[C@@H]4F)cc32)N1` (stereo partly drawn) [Compound 660] yielded an IC50 of 50 to 200 nM.

As for `COc1ccc2c(c1)C(c1cc(C(=O)c3cncnc3N[C@H]3C[C@H](O)[C@@H](COS(N)(=O)=O)[C@@H]3F)sc1C)NCC2` (stereo partly drawn) [Compound 243], the IC50 was above 200 nM.

With `CC1=C[C@@]2(NCCc3ccc(Cl)cc32)c2cc(C(=O)c3cncnc3N[C@H]3C[C@H](O)[C@@H](COS(N)(=O)=O)[C@@H]3F)sc21` [Compound 325], the IC50 was above 200 nM.

In turn, `N#Cc1ccc2c(c1)C1(C=Cc3sc(C(=O)c4cncnc4N[C@H]4C[C@H](O)[C@@H](COS(N)(=O)=O)[C@@H]4F)cc31)OCC2` (stereo partly drawn) [Compound 762] came in with an IC50 of 50 to 200 nM.

In turn, `N#Cc1ccc2c(c1)C1(CCCc3sc(C(=O)c4cncnc4N[C@H]4C[C@H](O)[C@@H](COS(N)(=O)=O)[C@@H]4F)cc31)OCC2` (stereo partly drawn) [Compound 714] showed an IC50 of 50 to 200 nM.

Turning to `N#Cc1ccc2c(c1)[C@@]1(CCCc3sc(C(=O)c4cncnc4N[C@H]4C[C@H](O)[C@@H](COS(N)(=O)=O)[C@@H]4F)cc31)OCC2` [Compound 716], the IC50 was at most 50 nM.

`CC1(C)Cc2ccc(Cl)cc2[C@@]2(CCCc3sc(C(=O)c4cncnc4N[C@H]4C[C@H](O)[C@@H](COS(N)(=O)=O)[C@@H]4F)cc32)N1` [Compound 1031] displayed a concentration for half-maximal inhibition (IC50) of 50 to 200 nM.

In turn, `NS(=O)(=O)OC[C@H]1[C@H](F)[C@@H](Nc2ncncc2C(=O)c2cc3c(s2)CCC[C@]32NCCc3ccc(Cl)nc32)C[C@@H]1O` [Compound 602] had a half-maximal inhibitory concentration (IC50) of at most 50 nM.

Consider `Cc1sc(C(=O)c2cncnc2N[C@H]2C[C@H](O)[C@@H](COS(N)(=O)=O)[C@@H]2F)cc1C1NCCc2cc(F)c(Cl)cc21` (stereo partly drawn) [Compound 246], for which the concentration for half-maximal inhibition (IC50) lay within 50 to 200 nM.

Compound `NS(=O)(=O)OC[C@H]1[C@H](F)[C@@H](Nc2ncncc2C(=O)c2cc3c(s2)C=CC32OCCc3ccc(Cl)cc32)C[C@@H]1O` (stereo partly drawn) [Compound 759] showed an IC50 of at most 50 nM.

For the compound `NS(=O)(=O)OC[C@H]1[C@H](F)[C@@H](Nc2ncncc2C(=O)c2cc3c(s2)CCC32NCCc3cc(F)c(Cl)cc32)C[C@@H]1O` (stereo partly drawn) [Compound 153], the IC50 is at most 50 nM.

`NS(=O)(=O)OC[C@H]1[C@H](F)[C@@H](Nc2ncncc2C(=O)c2cc3c(s2)C=C[C@@]32OCCc3ccc(Cl)cc32)C[C@@H]1O` [Compound 760] returned an IC50 above 200 nM.

The compound `Cc1sc(C(=O)c2cncnc2N[C@H]2C[C@H](O)[C@@H](COS(N)(=O)=O)[C@@H]2F)cc1C1OCc2ccc(Cl)cc21` (stereo partly drawn) [Compound 256] registered an IC50 above 200 nM.

For the compound `Cc1cc2c(cc1Cl)C(c1cc(C(=O)c3cncnc3N[C@H]3C[C@H](O)[C@@H](COS(N)(=O)=O)[C@@H]3F)sc1C)NCC2` (stereo partly drawn) [Compound 248], the IC50 lay within 50 to 200 nM.

Regarding `NS(=O)(=O)OC[C@H]1[C@H](F)[C@@H](Nc2ncncc2C(=O)c2cc3c(s2)CNC[C@@]32NCCc3ccc(Cl)cc32)C[C@@H]1O` [Compound 583], the IC50 was above 200 nM.

With `NS(=O)(=O)OC[C@H]1[C@H](F)[C@@H](Nc2ncncc2C(=O)c2cc3c(s2)CC[C@]32NCCc3ccc(C(F)(F)F)cc32)C[C@@H]1O` [Compound 690], the IC50 lay in the range of 50 to 200 nM.

Compound `NS(=O)(=O)OC[C@H]1[C@H](F)[C@@H](Nc2ncncc2C(=O)c2cc3c(s2)CNC[C@]32NCCc3ccc(Cl)cc32)C[C@@H]1O` [Compound 584] came in with an IC50 of 50 to 200 nM.

In turn, `N#Cc1ccc2c(c1)[C@@]1(CCCc3sc(C(=O)c4cncnc4N[C@H]4C[C@H](O)[C@@H](COS(N)(=O)=O)[C@@H]4F)cc31)NCC2` [Compound 96] registered an IC50 of at most 50 nM.

The same experiment, now with this note: numeric values, 6 h at 37° C.
As for `NS(=O)(=O)OC[C@H]1[C@H](F)[C@@H](Nc2ncncc2C(=O)c2cc3c(s2)CC[C@@]32NCCc3ccc(Cl)cc32)C[C@@H]1O` [Compound 131], the IC50 was above 1000 nM.

`[2H]C1([2H])Cc2ccc(Cl)cc2[C@]2(CCCc3sc(C(=O)c4cncnc4N[C@H]4C[C@H](O)[C@@H](COS(N)(=O)=O)[C@@H]4F)cc32)N1` [Compound 661]: the IC50 was above 1000 nM.

For the compound `Cc1sc(C(=O)c2cncnc2N[C@H]2C[C@H](O)[C@@H](COS(N)(=O)=O)[C@@H]2F)cc1[C@H]1NCCc2ccc(Cl)cc21` [Compound 234], the IC50 is above 1000 nM.

`NS(=O)(=O)OC[C@H]1[C@H](F)[C@@H](Nc2ncncc2C(=O)c2cc3c(s2)CC[C@]32NCCc3ccc(F)cc32)C[C@@H]1O` [Compound 135] registered a 50% inhibitory concentration (IC50) of 48.9 nM.
